One data set deals with human V1aR (Homo sapiens (Human), UniProt P37288). Kind of data set: Inhibition activity on human V1aR (Fluo-4 calcium assay, HEK293/human V1aR stably transfected cells). Type of data set: cell-based. Conditions: vasopressin 3 nM. On the procedure:
The inhibition effect of the compounds of the present invention on the activity of human V1 aR protein expressed in HEK293/human V1aR stably transfected cells was determined by the following experimental method:
The pcDNA3.1-V1aR plasmid was transferred into HEK293 cells with the Lipofectamine® 3000 transfection reagent; G418 was added on the next day to screen, and monoclonal cell lines were selected.
(§1) HEK293/human V1aR stably transfected cells were inoculated in a 96-well plate with an inoculation density of 25,000 cells/well one day in advance. On the next day, a loading buffer containing Fluo-4 dye was formulated using the reagents in the Fluo-4 NW calcium assay kit, and the culture medium was then removed; 100 μl of the loading buffer containing Fluo-4 dye were added to each well, and the plate was incubated at 37° C. for 30 minutes. After that, the plate was moved to room temperature and equilibrated for 10 minutes. The compounds were formulated at 10^6, 10^5, 10^4, 10^3, 10^2 and 10^1 nM. 1 μl of the compounds in each concentration was added to each well, and the plate was incubated at room temperature for 10 minutes. 50 μl of vasopressin polypeptide (3 nM) were automatically added by the machine, and the values were immediately detected at 494/516 nM by the flexstation 3 microplate reader. IC50 values of the compounds were calculated by Graphpad prism software using fluorescence signals corresponding to different concentrations.
The inhibition activity of the compounds of the present invention on human V1aR was determined by the above test, and the obtained IC50 values are shown in Table 2.

A further data set concerns the target human OTR (Homo sapiens, UniProt P30559). The experiment in a line: Inhibition activity on human OTR (Fluo-4 calcium assay, HEK293/human OTR stably transfected cells). It counts as cell-based. The settings on record: oxytocin 3 nM. On the procedure: The inhibition effect of the compounds of the present invention on the activity of human OTR protein expressed in HEK293/human OTR stably transfected cells was determined by the following experimental method:
The pcDNA3.1-hOTR plasmid was transferred into HEK293 cells with the Lipofectamine® 3000 transfection reagent; G418 was added on the next day to screen, and monoclonal cell lines were selected.
as §1, with “OTR” for “V1aR”, “oxytocin” for “vasopressin”
The inhibition activity of the compounds of the present invention on human OTR was determined by the above test, and the obtained IC50 values are shown in Table 1.

Data set [1] is described as follows: Pharmacokinetics assay in rats after intragastrical administration. Type of data set: in vivo, SD rats. The settings on record: Sprague-Dawley, rat, plasma, po, 30 mg/kg, intragastric, male rats; for Vd/F: read-out: Apparent distribution volume Vz/F; for AUC: read-out: Area under curve AUC; for CL/F: read-out: Clearance CLz/F; for half-life: read-out: Half-life T1/2 (converted); for Cmax: read-out: Plasma concentration Cmax; for MRT: read-out: Residence time MRT. The protocol:
Male SD rats were used as test animals. The drug concentration in plasma at different time points was determined by LC/MS/MS method after intragastrical administration of the compounds of Examples 2, 17, 34, 37, 38, 39 and 43 to rats. The pharmacokinetic behavior of the compounds of the present invention was studied and evaluated in rats.
Twenty-one healthy adult male Sprague-Dawley (SD) rats were purchased from Shanghai Jiesijie Laboratory Animal Co., LTD, with Certificate No.: SCXK (Shanghai) 2013-0006, and equally divided into 7 groups (3 rats per group).
A certain amount of the test compound was weighed, and added with 2.5% by volume of DMSO and 97.5% by volume of 10% solutol HS-15 to formulate a […] colorless, clear and transparent solution.
After an overnight fast, SD rats were administered intragastrically the test compounds at an administration dosage of 30.0 mg/kg and an administration volume of 10.0 mL/kg.
The rats were intragastrically administered the compounds of Examples 2, 17, 34, 37, 38, 39 and 43. 0.2 mL of blood was taken from the orbital sinus before administration and at 0.5, 1.0, 2.0, 4.0, 6.0, 8.0, 11.0 and 24.0 hours after administration. The samples were stored in heparinized tubes, and centrifuged for 10 minutes at 4° C. at 3500 rpm to separate the plasma. The plasma samples were stored at −20° C. The rats were fed 2 hours after administration.
The content of the test compounds in the plasma of rats after intragastrical administration of the test compounds at different concentrations was determined: 50 μL of rat plasma at each time after administration was taken, added with 50 μL of the internal standard solution of camptothecin (100 ng/mL) and 150 μL of acetonitrile, vortex-mixed for 5 minutes, and centrifuged for 10 minutes (4000 rpm). 3 μL of the supernatant was taken from the plasma samples for LC/MS/MS analysis.

Experimental findings from patent publication US10889569B2, “Condensed ring group azacyclobutyl triazole derivative, preparation method therefor and use thereof in medicine” (Jiangsu Hengrui Medicine Co., Ltd., priority 2016, dated 2021) are described below.

human V1aR, sequence (P37288 whole entry): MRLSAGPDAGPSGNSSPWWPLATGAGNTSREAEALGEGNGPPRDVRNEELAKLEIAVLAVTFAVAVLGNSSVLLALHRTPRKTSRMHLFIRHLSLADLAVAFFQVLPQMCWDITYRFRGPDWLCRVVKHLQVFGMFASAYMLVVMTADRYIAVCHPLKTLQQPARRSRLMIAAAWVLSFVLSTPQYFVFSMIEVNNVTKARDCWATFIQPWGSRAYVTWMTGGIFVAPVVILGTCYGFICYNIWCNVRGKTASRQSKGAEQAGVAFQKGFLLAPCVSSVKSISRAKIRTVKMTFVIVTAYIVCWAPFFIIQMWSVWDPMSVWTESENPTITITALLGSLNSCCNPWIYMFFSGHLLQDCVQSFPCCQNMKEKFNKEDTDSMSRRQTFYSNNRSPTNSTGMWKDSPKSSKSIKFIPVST

As for `COCc1nnc(N2CC(n3cc(Cl)c4cc(F)ccc43)C2)n1-c1ccc2c(c1)OCO2` [Example 3, 1-(1-(4-(Benzo[d][1,3]dioxolan-5-yl)-5-(methoxymethyl)-4H-1,2,4-triazol-3-yl)azetidin-3-yl)-3-chloro-5-fluoro-1H-indole], on human V1aR, the IC50 was determined as 7 µM.

`CCOCc1nnc(N2CC(n3cc(Cl)c4cc(F)ccc43)C2)n1-c1ccc(OC)nc1` [Example 4, 3-Chloro-1-(1-(5-(ethoxymethyl)-4-(6-methoxypyridin-3-yl)-4H-1,2,4-triazol-3-yl)azetidin-3-yl)-5-fluoro-1H-indole]: on human V1aR, the IC50 was found to be 2.3 µM.

Take `CCOCc1nnc(N2CC(n3cc(C)c4cc(F)ccc43)C2)n1-c1ccc(OC)nc1` [Example 5, 1-(1-(5-(Ethoxymethyl)-4-(6-methoxypyridin-3-yl)-4H-1,2,4-triazol-3-yl)azetidin-3-yl)-5-fluoro-3-methyl-1H-indole]: the IC50 at human OTR is 188 nM.

Consider `COc1ccc(-n2c(C)nnc2N2CC(n3cc(C)c4cc(F)ccc43)C2)cn1` [Example 6, 5-Fluoro-1-(1-(4-(6-methoxypyridin-3-yl)-5-methyl-4H-1,2,4-triazol-3-yl)azetidin-3-yl)-3-methyl-1H-indole], for which the IC50 on human V1aR is 4.7 µM.

Regarding `COCc1nnc(N2CC(n3cc(C(F)(F)F)c4cc(F)ccc43)C2)n1-c1ccc(OC)nc1` [Example 7, 5-Fluoro-1-(1-(5-(methoxymethyl)-4-(6-methoxypyridin-3-yl)-4H-1,2,4-triazol-3-yl)azetidin-3-yl)-3-(trifluoromethyl)-1H-indole], at human V1aR, the IC50 was determined as 6.7 µM.

In the case of `COCc1nnc(N2CC(n3cc(C#N)c4cc(F)ccc43)C2)n1-c1ccc(OC)nc1` [Example 13, 5-Fluoro-1-(1-(5-(methoxymethyl)-4-(6-methoxypyridin-3-yl)-4H-1,2,4-triazol-3-yl)azetidin-3-yl)-1H-indole-3-carbonitrile], the IC50 on human V1aR stood at 11.9 µM.

As to `COCc1nnc(N2CC(N3CCCc4c(F)cccc43)C2)n1-c1ccc(OC)nc1` [Example 19, 5-Fluoro-1-(1-(5-(methoxymethyl)-4-(6-methoxypyridin-3-yl)-4H-1,2,4-triazol-3-yl)azetidin-3-yl)-1,2,3,4-tetrahydroquinoline], the IC50 on human OTR is 41 nM; at human V1aR, 2 µM.

On to `COc1ccc(-n2c(C)nnc2N2CC(N3CCCc4c(F)cccc43)C2)cn1` [Example 20, 5-Fluoro-1-(1-(4-(6-methoxypyridin-3-yl)-5-methyl-4H-1,2,4-triazol-3-yl)azetidin-3-yl)-1,2,3,4-tetrahydroquinoline], for which the IC50 on human OTR was 104 nM; on human V1aR it was 3.1 µM.

`COCc1nnc(N2CC(N3CCOc4c(F)cccc43)C2)n1-c1ccc(OC)nc1` [Example 22, 8-Fluoro-4-(1-(5-(methoxymethyl)-4-(6-methoxypyridin-3-yl)-4H-1,2,4-triazol-3-yl)azetidin-3-yl)-3,4-dihydro-2H-benzo[b][1,4]oxazine]: the half-inhibitory concentration (IC50) at human OTR was 177 nM; on human V1aR it was 7.5 µM.

As for `COCc1nnc(N2CC(n3ccc4cc(F)ccc43)C2)n1-c1ccc(OC)nc1` [Example 25, 5-Fluoro-1-(1-(5-(methoxymethyl)-4-(6-methoxypyridin-3-yl)-4H-1,2,4-triazol-3-yl)azetidin-3-yl)-1H-indole], on human OTR, the IC50 stood at 23 nM.

As to `COCc1nnc(N2CC(N3CCCc4cc(F)ccc43)C2)n1-c1ccc2c(c1)OCO2` [Example 28, 1-(1-(4-(Benzo[d][1,3]dioxolan-5-yl)-5-(methoxymethyl)-4H-1,2,4-triazol-3-yl)azetidin-3-yl)-6-fluoro-1,2,3,4-tetrahydroquinoline], the values for the IC50 on human OTR and at human V1aR were 231 nM and 2.4 µM, respectively.

Turning to `COc1ccc(-n2c(COC(F)F)nnc2N2CC(n3cc(C)c4cc(F)ccc43)C2)cn1` [Example 34, 1-(1-(5-((Difluoromethoxy)methyl)-4-(6-methoxypyridin-3-yl)-4H-1,2,4-triazol-3-yl)azetidin-3-yl)-5-fluoro-3-methyl-1H-indole], on human OTR, the IC50 turned out to be 8 nM. For the same compound, in data set [1], the Vd/F amounted to 17.8 ± 3.33 L/kg, the AUC was found to be 5330 ± 981 ng·h/mL, the CL/F amounted to 95.8 ± 16 mL/min/kg and the half-life is 130 ± 20.7 min. Besides, in data set [1], the Cmax stood at 1070 ± 252 ng/mL and the MRT turned out to be 3.84 ± 1.08 h.

In the case of `COc1ccc(-n2c(C(F)F)nnc2N2CC(N3CCOc4cc(F)ccc43)C2)cn1` [Example 35, 4-(1-(5-(Difluoromethyl)-4-(6-methoxypyridin-3-yl)-4H-1,2,4-triazol-3-yl)azetidin-3-yl)-7-fluoro-3,4-dihydro-2H-benzo[b][1,4]oxazine], the IC50 was found to be 181 nM at human OTR and 14.1 µM on human V1aR.

For the compound `COC(=O)NCc1nnc(N2CC(N3CCCc4cc(F)ccc43)C2)n1-c1ccc(OC)nc1` [Example 36, Methyl ((5-(3-(6-fluoro-3,4-dihydroquinolin-1(2H)-yl)azetidin-1-yl)-4-(6-methoxypyridin-3-yl)-4H-1,2,4-triazol-3-yl)methyl)carbamate], the IC50 on human OTR is 124 nM; on human V1aR, 2.1 µM.

In the case of `COc1ccc(-n2c(COC(F)F)nnc2N2CC(N3CCOc4cc(F)ccc43)C2)cn1` [Example 37, 4-(1-(5-((Difluoromethoxy)methyl)-4-(6-methoxypyridin-3-yl)-4H-1,2,4-triazol-3-yl)azetidin-3-yl)-7-fluoro-3,4-dihydro-2H-benzo[b][1,4]oxazine], at human OTR, the IC50 amounted to 4 nM. The IC50 on human V1aR was 1.7 µM. For the same compound, in data set [1], the Vd/F was 56.3 ± 66 L/kg, the AUC worked out at 8180 ± 9850 ng·h/mL, the CL/F was 201 ± 223 mL/min/kg and the half-life is 177 ± 25.2 min. In data set [1], the Cmax came out at 1120 ± 950 ng/mL and the MRT was 4.9 ± 1.36 h.

In the case of `COc1ccc(-n2c(CO)nnc2N2CC(c3cccc4cc(F)ccc34)C2)cn1` [Example 41, (5-(3-(6-Fluoronaphthalen-1-yl)azetidin-1-yl)-4-(6-methoxypyridin-3-yl)-4H-1,2,4-triazol-3-yl)methanol], the values for the IC50 at human OTR and on human V1aR were 150 nM and 9 µM, respectively.

Take `COCc1nnc(N2CC(N3CCC(C)(C)c4cc(F)ccc43)C2)n1-c1ccc(OC)nc1` [Example 42, 6-Fluoro-1-(1-(5-(methoxymethyl)-4-(6-methoxypyridin-3-yl)-4H-1,2,4-triazol-3-yl)azetidin-3-yl)-4,4-dimethyl-1,2,3,4-tetrahydroquinoline]: the IC50 on human OTR came out at 23 nM; on human V1aR, 4.5 µM.
